Data: ChEMBL document CHEMBL4024798

Experiments:
[1] = Apparent permeability from apical to basolateral side in human Caco2 cells at 2 uM after 2 hrs by LC-MS/MS analysis; format: ADME, cell-based; settings: caco-2, 2 h
[2] = Apparent permeability from basolateral to apical side in human Caco2 cells at 2 uM after 2 hrs by LC-MS/MS analysis; format: ADME, cell-based; settings: caco-2, 2 h

OC12CC3CC(C1)CC(NCc1cc(C4CC4)on1)(C3)C2
Papp [1]: 27.57 ×10⁻⁶ cm/s | Papp [2]: 28.33 ×10⁻⁶ cm/s
